Entries after “also recorded” stand apart in the source; their conditions may differ.
Key:
MED1 droplets = molecular target: T1, MED1 droplets (Homo sapiens, UniProt Q15648); assay: In vitro droplet drug chase out experiment; assay type: binding; details: 5 μM cisplatin-TR, 10 μM MED1, unlabeled compound 10, 100 or 500 μM
T1 construct: MED1—amino acids 600-1581; 6xHis (N); made in house; host or cells: LOBSTR cells (E. coli)
Experimental: For chase-out experiments 5 μM labeled cisplatin-TR was added to a MED1 droplets reaction (10 μM MED1, 50 mM Tris-HCl pH 7.5, 10% glycerol, 1 mM DTT, 10% PEG) in order to form MED1 droplets concentrated with Cisplatin-TR. Unlabeled transplatin or unlabeled cisplatin (vehicle, 10 μM, 100 μM, or 500 μM) were added to the droplet mixture and the amount of labeled cisplatin-TR remaining in the droplet is measured after chase out. 100 μM fluorescent FLTX1 was added to a MED1 droplets reaction (10 μM MED1, 50 mM Tris-HCl pH 7.5, 10% glycerol, 1 mM DTT, 10% PEG) in order to form MED1 droplets concentrated with FLTX1.

MED1 aromatic mutant = molecular target: T2, MED1 aromatic mutant (Homo sapiens, UniProt Q15648, F1031A/F1273A/F1351A/F1564A/F657A/F708A/F713A/F724A/F821A/F826A/F858A/F859A/F865A/F878A/F883A/F895A/F898A/F920A/F931A/W1533A/Y1083A/Y1132A/Y1431A/Y1456A/Y1476A/Y1492A/Y661A/Y752A/Y835A/Y882A); assay: In vitro droplet assay with MED1 aromatic mutant; assay type: binding; details: 10% PEG, 125 mM NaCl, 10 μM protein, 5 μM small molecule
T2 construct: MED1—aromatic mutant amino acids 600-1581, all aromatic residues changed to alanine; 6xHis (N); made in house; host or cells: LOBSTR cells (E. coli)
Experimental: MED1—aromatic mutant amino acids 600-1581, all aromatic residues changed to alanine.
Recombinant BFP, GFP, or mCherry fusion proteins were concentrated and desalted to an appropriate protein concentration and 125 mM NaCl using Amicon Ultra centrifugal filters (30K MWCO, Millipore). Recombinant protein was added too. […] The protein solution was immediately loaded onto glass bottom 384 well plate (Cellvis P384-1.5H-N) and imaged with an Andor confocal microscope with a 150× objective. Unless indicated, images presented are of droplets settled on the glass coverslip.
To analyze in vitro droplet experiments, custom Python scripts using the scikit-image package were written to identify droplets and characterize their size, shape and intensity. […] After segmentation, mean intensity for each droplet was calculated while excluding pixels near the phase interface, and background-corrected by subtracting intensity of dark images of droplet formation buffer only. Droplets identified in the channel of the fluorescent protein from ten independent fields of view were quantified for each experiment. The maximum intensity of signal within the droplets was calculated for each channel, the maximum intensity in the drug channel was termed “maximum drug intensity”. […]

MED1 condensates = molecular target: T3, MED1 condensates (Homo sapiens, UniProt Q15648); assay: FRAP of in vitro droplets with drug; assay type: binding; details: 5 μM TR-cisplatin, 10 μM protein, 125 mM NaCl, 10% PEG
T3 construct: MED1—amino acids 600-1581; 6xHis (N); made in house; host or cells: LOBSTR cells (E. coli)
Experimental: For FRAP of in vitro droplets, 5 pulses of laser at a 50 us dwell time was applied to the MED1 channel and 20 pulses of laser at a 100 μs dwell time was applied to the Cisplatin channel. Recovery was imaged on an Andor microscope every 1 s for the indicated time periods. Fluorescence intensity was measured using FIJI. Post bleach FRAP recovery data was averaged over 6 replicates for each channel.

[1] = test system: platinated DNA in HCT116 cells; assay: Cisplatin/condensate co-immunofluorescence; assay type: cell-based, human; details: HCT116, 50 μM cisplatin for 6 hours
Experimental: HCT116 cells were plated in 24-well plate at 50 k cells per well to yield 100 k cells after 21 hours (doubling time of HCTs). Cells were permeabilized using a solution of Tx100 in media at 0.55 pmol/cell for 12 minutes at 37° C. Cells were then washed with 500 ul media and treated with 500 ul of 50 uM cisplatin in media for 6 hours. After 6 hours, the cells were washed once with room temperature PBS and then fixed with 500 uL 4% formaldehyde in PBS for 12 min at room temperature. The cells were then washed 3 more times with PBS. Coverslips were put into a humidifying chamber or stored at 4° C. in PBS. Permeabilization of cells were performed using 0.5% Triton X-100 (Sigma Aldrich, X100) in PBS for 10 minutes followed by three PBS washes. Cells were blocked with 4% IgG-free Bovine Serum Albumin, BSA, (VWR, 102643-516) for 30 minutes and the primary antibody was added at a concentration of 1:500 in PBS for 4-16 hours. […]
For the analysis of co-immunofluorescence data, custom python scripts were written to both process and analyze the 3D image data from IF and DAPI channels. Nuclei were detected using the Triangle thresholding method and a nuclear mask was applied the IF channels. […] Percentage of cisplatin overlap was calculated by the number of defined nuclear cisplatin puncta that overlapped with the protein of interest puncta divided by the total number of nuclear cisplatin puncta.

[2] = test system: MED1 genomic occupancy in HCT116 cells; assay: MED1 ChIP-seq in HCT116 cells; assay type: cell-based, human; details: 50 μM cisplatin for 6 hours
[3] = test system: super-enhancers in Hela cells; details: cisplatin treated Hela cells, published data (41); cited from earlier work

T1 sequence (Q15648 600-1581): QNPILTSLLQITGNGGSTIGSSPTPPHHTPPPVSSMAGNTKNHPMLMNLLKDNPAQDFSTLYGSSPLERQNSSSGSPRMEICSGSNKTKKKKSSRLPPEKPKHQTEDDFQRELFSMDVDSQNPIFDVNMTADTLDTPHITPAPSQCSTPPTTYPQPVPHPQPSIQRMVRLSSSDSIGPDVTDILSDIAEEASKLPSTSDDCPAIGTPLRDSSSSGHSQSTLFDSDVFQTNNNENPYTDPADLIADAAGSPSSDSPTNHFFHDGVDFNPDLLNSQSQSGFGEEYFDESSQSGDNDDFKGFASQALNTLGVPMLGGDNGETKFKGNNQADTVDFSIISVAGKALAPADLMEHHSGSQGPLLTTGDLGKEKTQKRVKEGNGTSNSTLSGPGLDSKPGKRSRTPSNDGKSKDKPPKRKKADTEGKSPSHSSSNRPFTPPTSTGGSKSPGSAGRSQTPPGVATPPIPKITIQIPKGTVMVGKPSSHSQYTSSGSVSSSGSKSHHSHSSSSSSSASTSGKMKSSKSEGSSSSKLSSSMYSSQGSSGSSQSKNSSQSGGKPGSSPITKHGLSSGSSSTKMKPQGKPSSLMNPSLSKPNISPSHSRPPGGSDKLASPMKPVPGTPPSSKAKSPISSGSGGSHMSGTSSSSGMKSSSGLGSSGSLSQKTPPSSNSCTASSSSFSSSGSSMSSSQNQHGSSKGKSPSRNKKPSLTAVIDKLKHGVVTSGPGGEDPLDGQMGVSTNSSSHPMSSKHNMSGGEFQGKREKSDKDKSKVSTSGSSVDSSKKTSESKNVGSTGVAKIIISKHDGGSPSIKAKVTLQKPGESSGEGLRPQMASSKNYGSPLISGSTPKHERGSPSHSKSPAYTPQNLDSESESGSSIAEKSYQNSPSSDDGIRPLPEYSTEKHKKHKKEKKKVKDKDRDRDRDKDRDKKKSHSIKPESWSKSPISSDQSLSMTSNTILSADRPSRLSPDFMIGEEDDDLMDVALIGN
T3 sequence (Q15648 600-1581): as above

N.N.[Cl][Pt][Cl] [cisplatin]
chase out of cisplatin-TR from MED1 droplets by unlabeled compound (MED1 droplets; listed as unlabeled cisplatin): able to chase out cisplatin-TR | chase out of cisplatin-TR from MED1 droplets by unlabeled compound (MED1 droplets; listed as unmodified cisplatin): could be chased out of the condensate | partitioning into MED1 aromatic mutant droplets (MED1 aromatic mutant): no longer partitioned; also recorded: substantially reduced | mobility in MED1 droplets (FRAP) (MED1 condensates): highly mobile | colocalization of platinated DNA with nuclear condensates [1]: frequently colocalized with MED1 condensates, but not with HP1α or FIB1 condensates | MED1 ChIP-seq signal after cisplatin [2]: preferential loss of MED1 ChIP-seq signal at super-enhancers; also recorded: reduced | location of cisplatin-modified DNA (platinated-DNA pull-down sequencing) [3]: preferentially occurs at super-enhancers

Reference: patent US20220390432A1, “METHODS OF CHARACTERIZING AND UTILIZING AGENT-CONDENSATE INTERACTIONS” (Whitehead Institute for Biomedical Research, priority 2019, published 2022)
